In article PMC4067742, “Direct Observations of Amyloid β Self-Assembly in Live Cells Provide Insights into Differences in the Kinetics of Aβ(1–40) and Aβ(1–42) Aggregation” (Chemistry & Biology, 2014):

Test system: SH-SY5Y cells
Experiment: dSTORM superresolution imaging of intracellular aggregates
Assay type: cell-based, human
Settings: 500 nM monomers, fixed cells; for average size of intracellular aggregates (diameter / longest dimension) after 24 hr: pixel counting in dSTORM images, only aggregates above resolution limit (55–70 nm), n = 18–27; for change in size of intracellular aggregates between 24 and 48 hr: pixel counting in dSTORM images (Figure 5B)
Experimental: To further investigate the nature of the intracellular Aβ(1–40) and Aβ(1–42) aggregates, we used superresolution fluorescence microscopy to analyze their physical appearance. […] Thus, we treated SH-SY5Y cells with 500 nM of ^HF647Aβ(1–40) or 500 nM of ^HF647Aβ(1–42) monomers for periods of 24 and 48 h. Thereafter, the cells were fixed, immersed in switching buffer, and imaged at single-molecule resolution using a homebuilt total internal reflection fluorescence (TIRF) microscope operated under highly inclined illumination ([Tokunaga et al., 2008]) to obtain images from an image plane within the cells. Superresolved images (Figure 5A) of the intracellular ^HF647Aβ(1–40) and ^HF647Aβ(1–42) aggregates were then reconstructed as described in the Experimental Procedures. dSTORM results in a dramatic increase in resolution compared with conventional confocal imaging (Figure S4). In this case, the lateral resolution of our images was calculated to be 55–70 nm using a blind assessment density estimation approach ([Rees et al., 2012]). Features larger than the lateral resolution limit can, therefore, be interpreted with confidence as having approximately the correct size and shape. […] The ^HF647Aβ(1–42) aggregates, by contrast, appear to include both spherical and elongated species, with an average size along their longest dimension of approximately 225 nm (Figure 5B). The observation that, after 24 hr, ^HF647Aβ(1–42) forms intracellular species that are larger than those formed by ^HF647Aβ(1–40) is consistent with the differences in their mean fluorescence lifetimes (Figures 4C, 4D, and 5C). […] Comparison of the FLIM and dSTORM data recorded after 24 and 48 hr indicates a qualitative relationship between aggregate size and HF488 fluorescence lifetime (Figures 5B and 5C), supporting the conclusion that the fluorescence lifetime reflects the nature and abundance of the Aβ amyloid aggregates formed in vivo.
Human neuroblastoma cells (SH-SY5Y) were grown in 1:1 minimal essential medium (MEM) and nutrient mixture F-12 Ham (Sigma-Aldrich) with sodium bicarbonate, including 15% heat-inactivated fetal bovine serum, 1% MEM non-essential amino acids, 2 mM […], 1% penicillin-streptomycin (10,000 U/ml K1), and 0.1% fungizone (amphotericin B, […] K1) (Life Technologies). Cells were plated 1 day prior to experiments in glass-bottomed culture dishes (MatTek) at a density of 50,000 cells/14-mm dish. […]
All dSTORM experiments were carried out using HF647-labeled peptides. Fluorescence images for dSTORM were taken on a Nikon Te-300 Eclipse inverted wide field microscope, with a 100×, 1.49 numerical aperture TIRF objective lens, an Andor iXon 887DV electron-multiplying charge-coupled device camera, and a Semrock fluorescence filter set (LF405/488/561/635-A-00). […]

| Substance | average size of intracellular aggregates (diameter / longest dimension) after 24 hr | change in size of intracellular aggregates between 24 and 48 hr |
| --- | --- | --- |
| ^HF647Aβ(1–42): Synthetic amyloid β (1–42) peptide labeled at the N terminus with Hilyte Fluor 647, purchased from Anaspec | approximately 225 nm | no significant change in the size |
| ^HF647Aβ(1–40): Synthetic amyloid β (1–40) peptide labeled at the N terminus with Hilyte Fluor 647, purchased from Anaspec | approximately 160 nm | appear to have increased in size |
